Consider two compounds from article PMC6801819, “Exogenous Iron Increases Fasciocidal Activity and Hepatocellular Toxicity of the Synthetic Endoperoxides OZ78 and MT04” (International Journal of Molecular Sciences, 2019).

For series [1], the system named is HepG2 cells. In words: Adenylate kinase leakage (membrane integrity test). In kind it is cell-based, human. The protocol:
(§1) Stock solutions of the drugs tested were prepared in DMSO 100% (v/v).
(§2) In viability assays, HepG2 cells were treated with 0.1% Triton-X or 0.1% DMSO for positive or negative control, respectively.
The assay was used according to the protocol supplied by the manufacturer.

Series [2] deals with HepG2 cells. In words: Cellular reactive oxygen species (DCF-DA). The format is cell-based, human. The procedure:
Stock solutions of the drugs tested were prepared in DMSO 100% (v/v). […] LC-MS measurements confirmed the stability of the compounds (data not shown). Treatments with AS, MT04, or OZ78 (100 or 500 µM) were performed either alone or in combination with 8% (v/v) hemin or FeCl2 solution for 24 h. The final iron concentration used was 122 µM (stock 1.5 mM) based on previous in vitro studies with F. hepatica. Dichlorodihydrofluorescein diacetate (DCF-DA) dissolved in DMSO was used to assess cellular formation of reactive oxygen species (ROS). HepG2 cells were seeded in a black-wall 96 well plate with a clear bottom as described above. Briefly, 30 min before treatment started, DCF-DA was added to the cells at a final concentration of 25 µM. DCF-DA was removed completely before the drugs were added. ROS was measured after 90 min and 24 h of drug exposure using a Tecan M200 Infinite Pro (excitation 485 nm, emission 535 nm).

The next series concerns adult F. hepatica. The series can be described thus: In vitro/ex vivo adult worm viability assay. The format is cell-based, Fasciola hepatica. Particulars: iron or hemin with 1% DMSO, no drug, 48 h or 72 h. The protocol:
The experiments were performed, as described previously. Adult F. hepatica were collected from bovine liver bile ducts obtained from the local slaughterhouse (Basel, Switzerland). After careful washing, a single adult worm was placed per well (6-well plate, Costar, MA, USA) containing 5.4 mL RPMI 1640 (Gibco, N.Y., USA), supplemented with 1% (v/v) antibiotics (50 µg/mL streptomycin and 50 U/mL penicillin), 1% (v/v) drug solution, […] Control worms were incubated in 1% (v/v) DMSO combined with iron or hemin. Experiments were conducted in triplicates and repeated once. Cultures were kept at 37 °C in an atmosphere of 5% CO2. The viabilities of treated and untreated worms were monitored at 0, 24, 48, and 72 h. Worms were examined by eye and/or using a dissecting microscope (20× lenses). The viability of adult flukes was scored using the following scale: 4: normal activity; movements were visible without a microscope, 3: reduced activities, 2: very weak activities detected only using microscopic magnification, and 1: death of worm (no movement observed for two min using a microscope).

The test system of series [3] is HepG2 cells. The series can be described thus: Cellular ATP content (CellTiter-Glo). The format is cell-based, human. The procedure: as §1, §2
To assess cellular ATP content, HepG2 cells were seeded in white-wall 96-well plates with a clear bottom (Nunc). One day after seeding, cells were treated with the respective drugs. […] Luminescence was measured using Tecan M200 Infinite Pro.

On to `[Cl][Fe][Cl]` [Fe^2+, Fe(II)chloride], for which the “cytotoxicity (AK release)” value in the series with HepG2 cells [1] is “not cytotoxic”. Besides, the “increase in ROS compared to DMSO, factor” value with HepG2 cells [2] was “did not trigger ROS production”. For the same compound, the “viability of adult F. hepatica” value with adult F. hepatica is “slight reduction in viability”. The “impact on cellular ATP content” value in the series on HepG2 cells [3] was “no impact on cellular ATP content”.
hemin [reference compound]: the “viability of adult F. hepatica” value in the series with adult F. hepatica is “slight reduction in viability”. Also, the “impact on cellular ATP content” value in the series with HepG2 cells [3] is “no impact on cellular ATP content”.
